Data published in patent publication US5614623A, “Diastereomers of 1-(isopropoxycarbonyloxy)ethyl 3-cephem-4-carboxylate and processes for their preparation” (Hoechst Aktiengesellschaft, priority 1991, dated 1997).
Like-named read-outs stand apart in the source and are kept apart here. Each block holds one compound with its values, some of them ahead of it.

Tests used:
[1] = system: enzymes endogenous to the body; details: after absorption, by enzymes endogenous to the body; cited from earlier work
[2] = stability under the conditions of column chromatography; assay type: physicochemical; details: both diastereomers and the diastereomer mixture
[3] = various animal species and man; cited from earlier work
[4] = recovery rate of the cephalosporin with free carboxyl group in the urine of dogs after oral administration of the diastereomeric prodrug ester (enteral absorption); assay type: in vivo; details: for bioavailability: comparison between the diastereomers / with the diastereomer mixture of cefpodoxime proxetil
[5] = diastereomers; T. Nishimura et al., The Journal of Antibiotics 40, 81-90 (1987); cited from earlier work

- stability [2]: unstable
Compound: COCC1=C(C(=O)OC(C)OC(=O)OC(C)C)N2C(=O)[C@@H](NC(=O)/C(=N\OC)c3csc(N)n3)[C@H]2SC1 (mixture of isomers) [cefpodoxime proxetil, 1-(Isopropoxycarbonyloxy)ethyl (6R, 7R)-7-[2-(2-aminothiazol-4-yl)-2-(Z)-(methoxyimino)acetamido]-3-methoxymethyl-3-cephem-4-carboxylate (diastereomer mixture, Cefpodoxime Proxetil)]
- cleavage to the antibiotically active cephalosporin having a free carboxyl group [1]: rapidly and completely cleaved
- enteral absorption [3]: readily enterally absorbed

- enteral absorption ([4]; as shown in Table 1): increased enteral absorption
- bioavailability ([4]; listed as the more polar of the two diastereomers): higher bioavailability
Compound: COCC1=C(C(=O)OC(C)OC(=O)OC(C)C)N2C(=O)[C@@H](NC(=O)/C(=N\OC)c3csc(N)n3)[C@H]2SC1 (single isomer, unassigned; diastereomer b) [Example 8]
- bioavailability ([4]; listed as the more absorbable diastereomer): higher bioavailability than the diastereomer mixture

Compound: CC(OC(=O)OC1CCCCC1)OC(=O)C1=C(CSc2nnnn2CCN(C)C)CS[C@@H]2[C@H](NC(=O)Cc3csc(N)n3)C(=O)N12 (stereo partly shown) [cefotiam hexetil]
- effect of configuration in the 1-position on the level of enteral absorption [5]: no effect on the level of enteral absorption
